Reference: US20230339977A1, “SUBSTITUTED HETEROARYL COMPOUND, AND COMPOSITION AND APPLICATION THEREOF” (SUNSHINE LAKE PHARMA CO., LTD., priority 2020, published 2023)
Like-named read-outs stand apart in the source and are kept apart here.

Key:
JAK1/TYK2 = assay: Cell level activity test of JAK1/TYK2 (IFN-α induced STAT3 phosphorylation in PBMC); type: cell-based; settings: Homo sapiens; P-STAT3 by ELISA in PBMC, compound 1 h, IFN-α 5000 U/mL 15 min; read-out: IC50 nM (JAK 1 /TYK2)
Method: IFN-α can induce the phosphorylation of STAT3 downstream of JAK1/TYK2 in PBMC, and by measuring the level of STAT3 phosphorylation, the activity of the compound on JAK1/TYK2 at the cell level can be reflected.
Whole blood was collected from healthy subjects, anticoagulated with heparin sodium, and PBMC (human peripheral blood mononuclear cells) were extracted. PBMC were seeded in a 96-well culture plates at a density of 1*106/well. Positive wells and negative wells were added with the same volume of DMSO as the compound, and the final concentration of DMSO was 0.5%. The compounds were incubated with the cells at 37° C. for 1 h, and then stimulated by adding IFN-α at a final concentration of 5000 U/mL, an equal volume of medium was added to the negative wells, and incubated for 15 min. The cells were centrifuged to remove the supernatant, then lysed, and P-STAT3 was measured according to the instructions of the ELISA kit, the absorbance was read at 450 nm, and the IC50 value or inhibition rate was calculated.

[1] = Pharmacokinetic evaluation in rats after intravenous injection and oral administration; type: in vivo; settings: rat, plasma; for AUC(0-t): read-out: PK AUClast; for Cmax: read-out: PK Cmax; for half-life: read-out: PK T½ (converted)
Method: The analytical LC/MS/MS system includes an Agilent 1200 series vacuum degasser, a binary syringe pump, an orifice plate autosampler, a column oven, and an Agilent G6430 triple quadrupole mass spectrometer with an electrospray ionization (ESI) source.
Agilent XDB-C18, 2.1 × 30 mm, 3.5 µM column was used to analysis, 5 µL sample was injected. Analytical conditions: Mobile phases were 0.1% formic acid in water (A) and 0.1% formic acid in methanol (B). The flow rate was 0.4 mL/min.
In addition, Agilent 6330 series LC/MS/MS spectrometer was used for analysis, equipped with G1312A binary syringe pump, G1367A automatic sampler and G1314C UV detector; LC/MS/MS spectrometer used ESI radiation source. Optimum analysis was achieved using standards with appropriate cation model processing and MRM conversion for each analyte. A Capcell MP-C18 column, 100 × 4.6 mm I.D., 5 µM (Phenomenex, Torrance, California, USA) was used during the analysis. Mobile phase was 5 mM ammonium acetate, 0.1% methanol in water (A): 5 mM ammonium acetate, 0.1% methanol in acetonitrile (B) (70/30, v/v); flow rate was 0.6 mL/min; column temperature was maintained at room temperature; 20 µL of sample was injected.
The present invention evaluates the pharmacokinetic studies of the compounds of the present invention in mice, rats, dogs or monkeys. The compounds of the present invention were administered in the form of aqueous solution or 2% HPMC + 1% Tween-80 aqueous solution, 5% DMSO + 5% saline solution, 4% MC or capsule. For intravenous administration, animals were dosed at about 0.5, 0.6, 1 or 2 mg/kg. The oral doses (p.o.) were 5 or 10 mg/kg for rats and mice, and 10 mg/kg for dogs and monkeys. Bloods (0.3 mL) were taken at time points 0.25, 0.5, 1.0, 2.0, 3.0, 4.0, 6.0, 8.0, 12 and 24 h and centrifuged at 3,000 or 4,000 rpm for 10 min. Plasma solutions were collected and stored at -20° C. or -70° C. until LC/MS/MS analysis as described above. […] Table 2 is the experimental results of the pharmacokinetic characteristics of the compounds provided in the examples of the present invention in rats.

Row | Structure (SMILES) | IC50 (JAK1/TYK2) [nM] | further results
1 | COC1(c2cccc(-c3cn(C)c4cnc(NC(C)=O)cc34)n2)CCOC1 (centres unmarked) [Control compound, reference compound] | 52.7 | –
2 | COc1cc(-c2cn(C)c3cnc(NC(C)=O)cc23)nc2c1CCOC21CCOC1 (centres unmarked) [Example 5, N-(3-(4′-Methoxy-4,5,5′,6′-Tetrahydro-2H-Spiro[Furan-3,8′-Pyrano[3,4-b]Pyridin]-2′-yl)-1-Methyl-1H-Pyrrolo[2,3-c]Pyridin-5-yl)Acetamide] | 178 | –
3 | CC(=O)Nc1cc2c(-c3cc(C(F)F)c4c(n3)C3(CCOC3)OCC4)cn(C)c2cn1 (centres unmarked) [Example 7, N-(3-(4′-(Difluoromethyl)-4,5,5′,6′-Tetrahydro-2H-Spiro[Furan-3,8′-Pyrano[3,4-b]Pyridin]-2′-yl)-1-Methyl-1H-Pyrrolo[2,3-c]Pyridin-5-yl)Acetamide] | 14.1 | –
4 | COCc1cc(-c2cn(C)c3cnc(NC(C)=O)cc23)nc2c1CCOC21CCOC1 (centres unmarked) [Example 8, N-(3-(4′-(Methoxymethyl)-4,5,5′,6′-Tetrahydro-2H-Spiro[Furan-3,8′-Pyrano[3,4-b]Pyridin]-2′-yl)-1-Methyl-1H-Pyrrolo[2,3-c]Pyridin-5-yl)Acetamide] | 41.2 | –
5 | CC(=O)Nc1cc2c(-c3ccc4c(n3)C3(CCOC3)OCN4C)cn(C)c2cn1 (centres unmarked) [Example 9, N-(1-Methyl-3-(1′-Methyl-1′,2′,4,5-Tetrahydro-2Hspiro[Furan-3,4′-Pyrido[3,2-d][1,3]Oxazin]-6′-yl)-1H-Pyrrolo[2,3-c]Pyridin-5-yl)Acetamide] | 114 | –
6 | CC(=O)Nc1cc2c(-c3ccc4c(n3)C3(CCOC3)OC(=O)N4C)cn(C)c2cn1 (centres unmarked) [Example 10, N-(1-Methyl-3-(1′-Methyl-2′-Oxo-1′,2′,4,5-Tetrahydro-2H-Spiro[Furan-3,4′-Pyrido[3,2-d][1,3]Oxazin]-6′-yl)-1H-Pyrrolo[2,3-c]Pyridin-5-yl)Acetamide] | > 1000 | –
7 | CC(=O)Nc1cc2c(-c3ccc4c(n3)C3(CCCOC3)OC4)cn(C)c2cn1 (centres unmarked) [Example 11, N-(3-(5′,6′-Dihydro-2′H,4′H,5H-Spiro[Furo[3,4-b]Pyridin-7,3′-Pyran]-2-yl)-1-Methyl-1H-Pyrrolo[2,3-c]Pyridin-5-yl)Acetamide] | > 1000 | –
8 | CC(=O)Nc1cc2c(-c3ccc4c(n3)C3(CCOC3)OC(C)(C)N4C)cn(C)c2cn1 (centres unmarked) [Example 13, N-(1-Methyl-3-(1′,2′,2′-Trimethyl-1′,2′,4,5-Tetrahydro-2H-Spiro[Furan-3,4′-P yrido[3,2-d][1,3]Oxazin]-6′-yl)-1H-Pyrrolo[2,3-c]Pyridin-5-yl)Acetamide] | 104 | –
9 | COCCOc1cc(-c2cn(C)c3cnc(NC(C)=O)cc23)nc2c1CCOC21CCOC1 (centres unmarked) [Example 15, N-(3-(4′-(2-Methoxyethoxy)-4,5,5′,6′-Tetrahydro-2H-Spiro[Furan-3,8′-Pyrano [3,4-b]Pyridin]-2′-yl)-1-Methyl-1H-Pyrrolo[2,3-c]Pyridin-5-yl)Acetamide] | 48.6 | –
10 | CC(=O)Nc1cc2c(-c3cc(OC(C)C)c4c(n3)C3(CCOC3)OCC4)cn(C)c2cn1 (centres unmarked) [Example 17, N-(3-(4′-Isopropoxy-4,5,5′,6′-Tetrahydro-2H-Spiro[Furan-3,8′-Pyrano[3,4-b]P yridine]-2′-yl)-1-Methyl-1H-Pyrrolo[2,3-c]Pyridin-5-yl)Acetamide] | 126 | –
11 | CC(=O)Nc1cc2c(-c3ccc4c(n3)C3(CCOC3)OCC4(F)F)cn(C)c2cn1 (centres unmarked) [Example 18, N-(3-(5′,5′-Difluoro-4,5,5′,6′-Tetrahydro-2H-Spiro[Furan-3,8′-Pyrano[3,4-b]P yridine]-2′-yl)-1-Methyl-1H-Pyrrolo[2,3-c]Pyridin-5-yl)Acetamide] | 19.6 | –
12 | CC(=O)Nc1cc2c(-c3cc(OCCN(C)C)c4c(n3)C3(CCOC3)OCC4)cn(C)c2cn1 (centres unmarked) [Example 19, N-(3-(4′-(2-(Dimethylamino)Ethoxy)-4,5,5′,6′-Tetrahydro-2H-Spiro[Furan-3,8′ -Pyrano[3,4-b]Pyridine]-2′-yl)-1-Methyl-1H-Pyrrolo[2,3-c]Pyridin-5-yl)Acetamide] | 115 | –
13 | CCCCOc1cc(-c2cn(C)c3cnc(NC(C)=O)cc23)nc2c1CCOC21CCOC1 (centres unmarked) [Example 20, N-(3-(4′-Butoxy-4,5,5′,6′-Tetrahydro-2H-Spiro[Furan-3,8′-pyrAno[3,4-b]Pyridine]-2′-yl)-1-Methyl-1H-Pyrrolo[2,3-c]Pyridin-5-yl)Acetamide] | 64.9 | –
14 | CC(=O)Nc1cc2c(-c3cc(Cl)c4c(n3)C3(CCOC3)OCC4)cn(C)c2cn1 (centres unmarked) [Example 21, N-(3-(4′-Chloro-4,5,5′,6′-Tetrahydro-2H-Spiro[Furan-3,8′-Pyrano[3,4-b]Pyridine]-2′-yl)-1-Methyl-1H-Pyrrolo[2,3-c]Pyridin-5-yl)Acetamide] | 36.9 | –
15 | COCCCOc1cc(-c2cn(C)c3cnc(NC(C)=O)cc23)nc2c1CCOC21CCOC1 (centres unmarked) [Example 22, N-(3-(4′-(3-Methoxypropoxy)-4,5,5′,6′-Tetrahydro-2H-Spiro[Furan-3,8′-Pyrano[3,4-b]Pyridin]-2′-yl)-1-Methyl-1H-Pyrrolo[2,3-c]Pyridin-5-yl)Acetamide] | 7.23 | –
16 | CC(=O)Nc1cc2c(-c3cc(S(C)(=O)=O)c4c(n3)C3(CCOC3)OCC4)cn(C)c2cn1 (centres unmarked) [Example 23, N-(1-meThyl-3-(4′-(Methylsulfonyl)-4,5,5′,6′-Tetrahydro-2H-Spiro[Furan-3,8′-Pyrano[3,4-b]Pyridin]-2′-yl)-1H-Pyrrolo[2,3-c]Pyridin-5-yl)Acetamide] | 104 | –
17 | CC(=O)Nc1cc2c(-c3cc(N(C)C)c4c(n3)C3(CCOC3)OCC4)cn(C)c2cn1 (centres unmarked) [Example 24, N-(3-(4′-(Dimethylamino)-4,5,5′,6′-Tetrahydro-2H-Spiro[Furan-3,8′-Pyrano[3,4-b]Pyridin]-2′-yl)-1-Methyl-1H-Pyrrolo[2,3-c]Pyridin-5-yl)Acetamide] | 29.9 | –
18 | CC(=O)Nc1cc2c(-c3cc(C#N)c4c(n3)C3(CCOC3)OCC4)cn(C)c2cn1 (centres unmarked) [Example 25, N-(3-(4′-Cyano-4,5,5′,6′-Tetrahydro-2H-Spiro[Furan-3,8′-Pyrano[3,4-b]Pyridine]-2′-yl)-1-Methyl-1H-Pyrrolo[2,3-c]Pyridin-5-yl)Acetamide] | 45.5 | –
19 | CC(=O)Nc1cc2c(-c3cc(OCCC(C)(C)O)c4c(n3)C3(CCOC3)OCC4)cn(C)c2cn1 (centres unmarked) [Example 26, N-(3-(4′-(3-Hydroxy-3-Methylbutoxy)-4,5,5′,6′-Tetrahydro-2H-Spiro[Furan-3, 8′-Pyrano[3,4-b]Pyridin]-2′-yl)-1-Methyl-1H-Pyrrolo[2,3-c]Pyridin-5-yl)Acetamide] | 110 | AUC(0-t) ([1]; IV 2 mg/kg): 494 ng·h/mL; Cmax ([1]; IV 2 mg/kg): 289 ng/mL; half-life ([1]; IV 2 mg/kg): 1.65 h; AUC(0-t) ([1]; PO 5 mg/kg): 2290 ng·h/mL; Cmax ([1]; PO 5 mg/kg): 612 ng/mL; half-life ([1]; PO 5 mg/kg): 3.62 h; bioavailability ([1]; oral bioavailability, PO 5 mg/kg): 98.5%
20 | COC(C)(C)CCOc1cc(-c2cn(C)c3cnc(NC(C)=O)cc23)nc2c1CCOC21CCOC1 (centres unmarked) [Example 27, N-(3-(4′-(3-Methoxy-3-Methylbutoxy)-4,5,5′,6′-Tetrahydro-2H-Spiro[Furan-3, 8′-Pyrano[3,4-b]Pyridin]-2′-yl)-1-Methyl-1H-Pyrrolo[2,3-c]Pyridin-5-yl)Acetamide] | 13.1 | –
21 | COCCCCOc1cc(-c2cn(C)c3cnc(NC(C)=O)cc23)nc2c1CCOC21CCOC1 (centres unmarked) [Example 28, N-(3-(4′-(4-Methoxybutoxy)-4,5,5′,6′-Tetrahydro-2H-Spiro[Furan-3,8′-Pyrano[3,4-b]Pyridin]-2′-yl)-1-Methyl-1H-Pyrrolo[2,3-c]Pyridin-5-yl)Acetamide] | 12.9 | –
22 | CC(=O)Nc1cc2c(-c3cc(OCCCN(C)C)c4c(n3)C3(CCOC3)OCC4)cn(C)c2cn1 (centres unmarked) [Example 29, N-(3-(4′-(3-(Dimethylamino)Propoxy)-4,5,5′,6′-Tetrahydro-2H-Spiro[Furan-3, 8′-Pyrano[3,4-b]Pyridin]-2′-yl)-1-Methyl-1H-Pyrrolo[2,3-c]Pyridin-5-yl)Acetamide] | 93.1 | –
